Measured values as given in patent publication US20260053801A1, “METHOD FOR TREATING AUTOPHAGY DEPENDENT CANCER WITH A PIKFYVE INHIBITOR” (The Regents of the University of Michigan, priority 2023, published 2026).
Entries after “also recorded” stand apart in the source; their conditions may differ.

Experiments:
[1] = tested on: autophagic flux in 7940B cells; experiment: GFP-LC3-RFP-LC3ΔG autophagic flux probe assay in 7940B cells; assay type: cell-based, mouse; settings: for basal autophagic flux / autophagic flux induced by torin-1: apilimod 100 nM, ESK981 1000 nM, chloroquine 50 μM; for autophagic flux induced by torin-1: torin-1 100 nM
Excerpt: (§1) Generation of the autophagic flux probe in 7940B, Panc 04.03, and iKRAS was done according to the original author's instructions. Kaizuka, T. et al., Mol Cell 64, 835-849, doi:10.1016/j.molcel.2016.09.037 (2016). Briefly, cells were infected with pMRX-IP-GFP-LC3-RFP-LC3DG, which was a gift from Noboru Mizushima (Addgene plasmid #84572; http://n2t.net/addgene:84572; RRID:Addgene_84572). Following puromycin selection, single-cell clones were expanded and genotyped to ensure the absence of homologous recombination between two LC3 fragments during retrovirus integration.
(§2) 15,000 cells were seeded in 96-well plates. After overnight incubation, cells were treated with the indicated compounds for 24 hours. […] Fluorescent signals were detected using the Infinite M1000 Pro plate reader (Tecan).

[2] = tested on: autophagic flux in Panc 04.03 cells; experiment: GFP-LC3-RFP-LC3ΔG autophagic flux probe assay in Panc 04.03 cells; assay type: cell-based, human; settings: for autophagic flux induced by torin-1: 4-hour pre-treatment, then torin-1 100 nM 24 hours; for autophagic flux induced by torin-1 / basal autophagic flux: apilimod 300 nM, ESK981 1000 nM, chloroquine
Excerpt: as §1, §2

FASN and ACACA = experiment: qPCR of FASN and ACACA in PDAC cell lines treated with KRAS-MAPK inhibitors; assay type: cell-based; settings: eight hours; PDAC cell lines with the relevant KRAS mutation
Description: Total RNA was isolated from cells using the miRNeasy kit (Qiagen), and cDNA was synthesized from 1000 ng of total RNA using Maxima First Strand cDNA Synthesis Kit for RT-qPCR (Thermo Fisher Scientific). Quantitative real-time PCR was performed in triplicates using standard SYBR green reagents and protocols on a QuantStudio 5 Real-Time PCR system (Applied Biosystems). The target mRNA expression was quantified using the ΔΔCt method and normalized to ACTB (human) or Actb (murine) expression. All primers were designed using Primer 3 (http://frodo.wi.mit.edu/primer3/) and synthesized by Integrated DNA Technologies (Coralville).

[3] = tested on: FASN and ACACA transcripts in AsPC1 cells; settings: MRTX1133 100 nM, 24 hours; cited from earlier work
[4] = tested on: FASN and ACACA transcripts in AsPC1 cell-derived xenograft; settings: 30 mg/kg MRTX1133 6 hours prior to tumor collection; cited from earlier work
cell surface MHC-I = experiment: Flow cytometry of cell surface MHC-I in mouse cancer lines; assay type: cell-based; settings: pancreatic (KPC1361); extended to 4T1, B16-F10, LLC
mouse PIKfyve protein = biological target: T1, mouse PIKfyve protein (Mus musculus, UniProt Q9Z1T6); experiment: Cellular Thermal Shift Assay (CETSA) in 7940B cells; assay type: binding; settings: 1000 nM, 2 hours
T1 construct: endogenous in cells; host or cells: 7940B (murine KPC pancreatic cancer cell line)
Description: CETSA was performed according to previously described protocols^71. Briefly, 7940B cells were seeded overnight and were subsequently treated with DMSO, ESK981 (1000 nM), or apilimod (1000 nM) for 2 hours. Cells were then harvested and made into single-cell suspensions of 1×10^6 cells each in […] of PBS containing protease inhibitors. The suspensions were then subjected to heating and cooling cycles (two cycles of 3-minute heating followed by 3-minute cooling at room temperature) using a thermal cycler. Cells were then lysed with three cycles of freeze-thawing in liquid nitrogen. Lysates were then analyzed using immunoblot analysis as previously described.

7940B cells [5] = experiment: RNA-seq in 7940B cells; assay type: cell-based, mouse; settings: eight-hour treatment
Description: RNA-seq libraries were prepared using 800 ng of total RNA. Ribosomal RNA were removed by enzymatic digestion of the specific probe-bound duplex rRNA, and then fragmented to around 200-300 bp with heat in fragmentation buffer (KAPA RNA Hyper+RiboErase HMR, Roche). Double-stranded cDNA was then synthesized by reverse transcription and underwent end-repair and ligation using New England Biolabs (NEB) adapters. Final library preparation was then prepared by amplification with 2×KAPA HiFI HotStart mix and NEB dual barcode. Library quality was measured on an Agilent 2100 Bioanalyzer (DNA 1000 chip) for concentration and product size. Paired-end libraries were sequenced with the Illumina NovaSeq, (2×151 nucleotide read length) with sequence coverage to 30-40 million paired reads. Reads were demultiplexed using Illumina's bcl2fastq conversion software v2.20. Transcripts were quantified by the alignment-free approach kallisto using index generated from mouse reference genome (mm10) and then summed to obtain gene level counts. Differential analysis was performed using limma-voom after TMM-normalization of gene level counts with calcNormFactors of edgeR. Genes with mean Transcripts Per Million (TPM) less than 1 in both control and treatment groups were considered as lowly expressed genes and excluded for differential analysis. […]

7940B cells [6] = experiment: Targeted metabolomics in 7940B cells; assay type: cell-based, mouse; settings: apilimod 100 nM, ESK981 1000 nM
Description: Polar metabolites from samples treated in biological triplicates were extracted using 80% v/v methanol/water and normalized using protein quantification from an additional sample from each condition. Equal estimated amounts of metabolites were dried using a SpeedVac vacuum concentrator, reconstituted in 50% v/v methanol in water, and analyzed by LC-MS as previously described. Data were analyzed as previously described with the Agilent Masshunter Workstation Quantitative Analysis for QQQ version 10.1 Build 10.1.733.0. No post-detection normalization was performed to avoid assuming linearity of signal. Heatmaps were generated using the Morpheus Matrix Visualization and analysis tool (https://software.broadinstitute.org/morpheus).

7940B cells [7] = experiment: Targeted lipidomics in 7940B cells; assay type: cell-based, mouse; settings: 24 hours; apilimod 100 nM, ESK981 1000 nM
Description: Sample preparation: Samples for lipidomics analyses were prepared according to the automatic dual-metabolite/lipid sample preparation workflow described in the Agilent application note 5994-5065EN. Briefly, 1 million cells were washed in PBS and lysed with 1:1 trifluoroethanol/water at room temperature. Lysates were transferred to microcentrifuged tubes, incubated for 10 minutes, and then centrifuged at 250×g for 30 seconds. Samples were then dehydrated under reduced pressure with no heat. […]
LC-MS/MS analysis: samples were analyzed on an Agilent 1290 Infinity II Bio LC ultra-high performed liquid chromatography (UPLC) system consisting of a high-pressure binary pump, multicolumn thermostat, and a temperature controlled multi-sampler. Samples were analyzed in randomized order on an Agilent 649C triple quadrupole mass spectrometer equipped with an Agilent Jet Stream Dual ESI ion source. Specifically, samples were analyzed with the reverse phase LC-MS/MS method reported in the Agilent application note 5994-3747EN. After acquisition, datasets were processed with MassHunter Quantitative analysis software and subsequently imported into Mass Profiler Professional (MPP) for chemometric analysis. […]

[8] = Ikonomov et al. 2019; cited from earlier work
[9] = tested on: autophagic flux in iKras cells; experiment: Autophagic flux probe assay in iKRAS 9805 cells; assay type: cell-based; settings: doxycycline withdrawal; apilimod 100 nM, ESK981 1000 nM, chloroquine 10 μM, 24 hours
Excerpt: as §1, §2

[10] = tested on: 7 human and mouse PDAC cell lines; settings: 7 days, CellTiter-Glo
Description: Cells were plated into 96-well plates and incubated overnight at 37° C. in 5% CO2. The following day, a serial dilution of the indicated compounds was prepared in culture medium and added to the plate. The cells were then further incubated for 5 days (experiments involving MRTX1133 or trametinib) or 7 days (all other experiments). Subsequently, the CellTiter-Glo assay (Promega), was then performed according to the manufacturer's instructions. The luminescence signal was acquired using an Infinite M1000 Pro plate reader (Tecan), and the data were analyzed using GraphPad Prism 10 (GraphPad Software Inc.).

7940B cells [11] = experiment: Real-time oxygen consumption rate (Resipher) in 7940B cells; assay type: cell-based, mouse; settings: apilimod 100 nM, ESK981 1000 nM, bafilomycin 100 nM, chloroquine 100 μM
Description: Real-time monitoring of basal oxygen consumption rate was performed using a Resipher (Lucid Scientific). […] Immediately following treatment with an additional 50 μl of medium (for a total of 100 μl), OCR monitoring was started by placing the Resipher device on the cells, which was incubated at 37° C. and 5% CO2 for 24 hours.

[12] = 24-hour treatment, labeled doses
[13] = MRTX1133 300 nM or trametinib 25 nM, 24 hours

T1 sequence (Q9Z1T6 whole entry): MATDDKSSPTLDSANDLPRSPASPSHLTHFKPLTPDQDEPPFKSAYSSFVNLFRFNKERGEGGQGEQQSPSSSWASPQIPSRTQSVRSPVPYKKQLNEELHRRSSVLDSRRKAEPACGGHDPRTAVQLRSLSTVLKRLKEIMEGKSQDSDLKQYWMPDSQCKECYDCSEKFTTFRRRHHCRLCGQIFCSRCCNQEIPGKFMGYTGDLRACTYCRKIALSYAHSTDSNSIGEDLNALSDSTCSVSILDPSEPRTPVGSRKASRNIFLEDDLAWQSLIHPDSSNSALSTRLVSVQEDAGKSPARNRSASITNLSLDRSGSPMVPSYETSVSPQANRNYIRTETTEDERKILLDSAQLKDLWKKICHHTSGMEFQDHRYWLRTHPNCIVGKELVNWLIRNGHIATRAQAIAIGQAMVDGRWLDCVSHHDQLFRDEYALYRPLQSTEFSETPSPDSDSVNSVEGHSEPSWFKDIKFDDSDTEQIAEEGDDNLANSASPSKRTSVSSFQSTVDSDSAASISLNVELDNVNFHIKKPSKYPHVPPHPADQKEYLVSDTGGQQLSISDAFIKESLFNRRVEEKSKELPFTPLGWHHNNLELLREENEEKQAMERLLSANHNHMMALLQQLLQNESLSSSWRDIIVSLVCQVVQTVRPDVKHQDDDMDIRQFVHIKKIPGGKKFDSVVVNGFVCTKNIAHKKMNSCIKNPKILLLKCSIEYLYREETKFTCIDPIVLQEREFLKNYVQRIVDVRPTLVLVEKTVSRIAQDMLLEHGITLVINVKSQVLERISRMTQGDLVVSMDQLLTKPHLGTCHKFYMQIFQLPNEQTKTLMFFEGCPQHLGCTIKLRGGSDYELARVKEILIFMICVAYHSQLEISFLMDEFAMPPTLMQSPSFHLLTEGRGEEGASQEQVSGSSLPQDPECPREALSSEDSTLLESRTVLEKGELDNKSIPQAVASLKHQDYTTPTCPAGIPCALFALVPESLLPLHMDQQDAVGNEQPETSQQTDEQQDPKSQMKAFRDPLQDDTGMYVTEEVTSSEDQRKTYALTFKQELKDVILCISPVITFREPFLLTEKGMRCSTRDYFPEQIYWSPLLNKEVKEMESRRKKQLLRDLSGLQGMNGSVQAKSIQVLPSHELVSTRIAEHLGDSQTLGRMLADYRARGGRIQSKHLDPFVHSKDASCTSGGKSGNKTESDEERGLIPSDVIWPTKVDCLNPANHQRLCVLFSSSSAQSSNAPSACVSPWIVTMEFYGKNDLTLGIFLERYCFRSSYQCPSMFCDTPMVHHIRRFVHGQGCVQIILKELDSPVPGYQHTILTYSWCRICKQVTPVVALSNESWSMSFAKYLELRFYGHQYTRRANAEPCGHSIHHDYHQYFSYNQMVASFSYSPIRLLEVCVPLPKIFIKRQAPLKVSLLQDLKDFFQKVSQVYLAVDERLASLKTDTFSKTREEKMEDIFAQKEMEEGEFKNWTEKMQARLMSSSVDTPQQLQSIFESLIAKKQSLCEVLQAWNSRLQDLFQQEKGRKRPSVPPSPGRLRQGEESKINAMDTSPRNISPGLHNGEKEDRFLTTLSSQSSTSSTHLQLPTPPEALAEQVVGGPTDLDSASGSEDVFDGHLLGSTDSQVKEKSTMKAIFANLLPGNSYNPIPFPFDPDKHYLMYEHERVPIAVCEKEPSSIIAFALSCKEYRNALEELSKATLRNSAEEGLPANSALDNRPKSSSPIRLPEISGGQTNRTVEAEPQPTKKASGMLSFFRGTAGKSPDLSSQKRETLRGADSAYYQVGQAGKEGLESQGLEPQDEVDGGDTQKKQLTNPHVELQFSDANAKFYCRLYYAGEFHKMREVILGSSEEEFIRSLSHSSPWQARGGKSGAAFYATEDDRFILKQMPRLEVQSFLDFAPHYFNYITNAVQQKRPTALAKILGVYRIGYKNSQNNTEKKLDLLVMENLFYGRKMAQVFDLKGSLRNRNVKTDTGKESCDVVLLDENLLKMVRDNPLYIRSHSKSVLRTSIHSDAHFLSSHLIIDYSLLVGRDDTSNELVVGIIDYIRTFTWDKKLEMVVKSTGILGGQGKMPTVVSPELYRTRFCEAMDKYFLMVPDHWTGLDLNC

In the case of `C#Cc1c(F)ccc2cc(O)cc(-c3ncc4c(N5CC6CCC(C5)N6)nc(OC[C@@]56CCCN5C[C@H](F)C6)nc4c3F)c12` [MRTX1133], the “autophagy upon acute KRAS G12D inhibition” value [1, 12] is reported as “upregulate autophagy”, the “autophagic flux upon KRAS-MAPK inhibition” value [1, 13] is reported as “induced autophagic flux” and the “autophagy upon acute KRAS G12D inhibition” value [2, 12] is reported as “upregulate autophagy”. For the same molecule, the “autophagic flux upon KRAS-MAPK inhibition” value [2, 13] was “induced autophagic flux”, the “transcription of FASN and ACACA” value (FASN and ACACA) was “decreased transcription of FASN and ACACA” and the “FASN and ACACA transcripts in vitro” value [3] was “decreases FASN and ACACA transcripts”. For the same molecule, the “FASN and ACACA transcripts in vivo” value [4] was “decreases FASN and ACACA transcripts”.
For `Cc1cccc(/C=N/Nc2cc(N3CCOCC3)nc(OCCc3ccccn3)n2)c1` [apilimod, N-[(E)-(3-methylphenyl)methylideneamino]-6-morpholin-4-yl-2-(2-pyridin-2-ylethoxy)pyrimidin-4-amine], the “cell surface expression of MHC-I” value (cell surface MHC-I) was “increased cell surface expression of MHC-I”, the “binding / stabilization of PIKfyve (CETSA)” value (mouse PIKfyve protein) was “bind to mouse PIKfyve protein; also recorded: stabilization of PIKfyve” and the basal autophagic flux ([1]; 24 hours) was “decreased”. For the same molecule, the “autophagic flux induced by torin-1” value [1] was “decreased”, the “autophagic flux induced by torin-1” value [2] was “decreased” and the basal autophagic flux [2] was “decreased”. For the same molecule, the gene expression changes (7940B cells [5]) was “concordant gene expression changes”, the most upregulated pathways (7940B cells [5]) was “cholesterol homeostasis, MTORC1 signaling, and fatty acid metabolism” and the glycolytic metabolites (7940B cells [6]; eight hours) was “dramatic depletion of glycolytic metabolites”. For the same molecule, the citrate level (7940B cells [6]; three hours) was “decrease in citrate”, the cellular lipid landscape (7940B cells [7]) was “induced significant changes in the cellular lipid landscape” and the in vivo pharmacokinetics [8] was “poor in vivo pharmacokinetics”.
For `CCN(CC)CCCC(C)Nc1ccnc2cc(Cl)ccc12` (centres unmarked) [chloroquine], the basal autophagic flux ([1]; 24 hours) was “decreased”, the “autophagic flux induced by torin-1” value [1] was “decreased” and the “autophagic flux induced by torin-1” value [2] was “decreased”. The basal autophagic flux [2] was “decreased”, the “increase in autophagic flux upon Kras OFF” value [9] was “attenuated” and the “half-maximal inhibitory concentrations (IC50), cell viability” value [10] was “much higher”. The “OCR through 24 hours of treatment” value (7940B cells [11]) was “significantly decreased OCR”.
